Reference: patent publication US20110044936A1, “Composition for Attracting Bed Bugs” (priority 2009, published 2011)

Legend:
Assay type in all cases: in vivo
[1] = test system: bed bugs (Cimex lectularius); experiment: Test arena assay with experimental gas and control gas zones (Example 4); settings: after two hour exposure; fifty bed bugs; Hexenal/Octenal 75/25 at 73 nanograms/hour, butyric acid 3.097 micrograms/hour @ 100 mL/min air flow; CO2 50%; test gas 23-26 °C; control gas compressed air
From the text: A test arena was constructed from a 60×40×22 cm (L:W:H) polystyrene container. […] At one end of the test arena, a triangular piece of plastic (16 cm high×25 cm long) was glued to the middle of the side and bottom of the container to create test zones of equal area on either side of the partition. On each side of this partition a piece of Tygon® tubing was inserted through a hole 7 cm above the bottom of each test zone to deliver a control gas to one side of the partition (control zone) and the experimental gas to the other side of the partition (experimental zone). The tubing was positioned to deliver the gases downward into the test zones with each outlet 6 cm above the filter paper glued to the bottom of the container. […] Removal of the Petri dish started the experiment and readings were taken every hour for two hours. […] Air temperature was monitored with a high/low thermometer. […] Relative humidity was monitored using a high/low hygrometer placed in-line immediately before the gas entered the arena. […] The relationship between valve settings and air flow was determined and using this information, valve settings were determined that could deliver blended gases (air and CO2) at a flow rate of about 100 or about 200 ml/min. […]

[2] = test system: bed bugs (Cimex lectularius); experiment: Bed bug aggregation (attraction) assay, Petri dish arena with treated and control filter paper tents (Example 1); settings: 5 microliters, one hour, five bed bugs, average of two tests
Protocol: Attraction Assays: Assay arenas were made from 150×15 mm plastic Petri dishes (VWR#25384-326) containing a 125 mm piece off qualitative filter paper (VWR#28320-100) glued to the bottom using 3M Super 77® multipurpose spray adhesive. A 80 mm hole was cut into the lid and a 500 um mesh Nytex® screen (Bioquip, #7293B) was glued to cover the opening using quick epoxy. Fresh bottom dishes were used in each assay. For these experiments 2.4 cm filter paper folded to create a tent were treated with either a control treatment (10 microliters of silicone oil for aldehyde controls and 5 microliters of deionized water for acid controls) or 10 microliters of the experimental test treatment diluted in silicone oil (aldehydes) or 5 microliters of the experimental chemical diluted in deionized water (acids). Ten bed bugs per test were released into the assay arena for the aldehyde test treatments and controls, five bed bugs per test were released into the assay arena for the acid test treatments. Day cycling bed bugs (Cimex lectularius), 12 hour light: 12 hour dark (7 AM On: 7 PM Off) light cycle, were incubated and evaluated under normal room lighting conditions at room temperature. Readings were taken at 1 hour intervals from the release of bed bugs for 4 hours for aldehydes and one hour for acids, due to the quick volatility of the acids. The number of bed bugs under the control filter paper disk and the number of bed bugs under the test treatment filter paper disk were recorded. The test treatment was considered to be an attractant if the number of bed bugs under the experimental filter disk was greater than the number under the control filter disk. Table 1 below summarizes the experimental data, the experimental test treatments considered as attractants are in bold.

[3] = test system: bed bugs (Cimex lectularius); experiment: Bed bug aggregation assay, mixtures of Hexenal, Octenal and butyric acid (Example 3); settings: for Number of bed bugs under experimental (Exp) disk: H/O 75/25 120 ppm in silicone oil, BA about 100 ppm in deionized water, 5 microliters each, ten bed bugs, average of two tests
Protocol: Attraction Assays: […] For this test, a mixture of Hexenal and Octenal (75:25 ratio) was diluted in silicone oil to provide about a 120 ppm solution. […] Readings were taken hourly for four hours from the release of bed bugs in the assay arena. The number of bed bugs under the control disk and the number of bed bugs under the experimental disk were recorded. The test chemical was considered to be an attractant if the number of bed bugs under the experimental filter disk was greater than the number under the control disk. Table 3 below summarizes the experimental data, the experimental test treatment considered as attractants are in bold.

[4] = test system: bed bugs (Cimex lectularius); experiment: Test arena gas assay, compounds dissolved in nonane (Example 5)
From the text: A test arena was constructed from a 60×40×22 cm (L:W:H) polystyrene container. A 60×40 cm piece of filter paper was glued on the bottom to provide a walking surface for the bed bugs. At one end of the test arena, a triangular piece of plastic (16 cm high×25 cm long) was glued to the middle of the side and bottom of the container to create test zones of equal area on either side of the partition. On each side of this partition a piece of Tygon® tubing was inserted through a hole 7 cm above the bottom of each test zone to deliver a control gas to one side of the partition (control zone) and the experimental gas to the other side of the partition (experimental zone). The tubing was positioned to deliver the gases downward into the test zones with each outlet 6 cm above the filter paper glued to the bottom of the container. At the other end of the test arena, a 4 W night light was placed 35 cm above the bottom of the arena and regulated to a 12 hour light:12 hour dark (7 AM On: 7 PM Off) light cycle. Also placed adjacent to the night light was a small fan (Boston, cat#EHSDF) to create a gentle removal of gases from the distal part of the arena. Air released by the experimental and control gases was contained within their partitions and were gently drawn away from the respective air inputs, mixed within the arena and removed by the fan. This created a laminar flow where the bed bugs had opportunity to select either the experimental or control gas. Fifty bed bugs (Cimex lectularius) were entrapped within an inverted 90 mm Petri dish at a position furthest from the control and experimental zones until bed bugs were quiescent. Removal of the Petri dish started the experiment and readings were taken every hour for two hours. Data collected were number of bed bugs in the experimental, control and free arena zones. In addition, gas temperature, relative humidity, air flow rate, and percent CO2 data were collected. The experimental gas was considered to be an attractant if more bed bugs were in the experimental zone than in the control zone.
Determination of Bed Bug Aggregation Effect Using Hexenal, Butyric Acid, trans-2-Hexen-1-al Diethylacetal, Trimethylsilyl Butyrate or Methyl Butyrate Dissolved in an Alkane Solvent Using the test arena and methods described in Example 4, test treatments containing about 300 ppm of a pro-aldehyde compound, trans-2-hexen-1-al diethylacetal, dissolved in nonane, about 300 ppm of Hexenal dissolved in nonane, about 200 ppm of butyric acid dissolved in nonane and about 200 ppm of a pro-organic acid compound, trimethylsilyl butyrate or methyl butyrate, dissolved in nonane were prepared. Separate 100 micro liter pipettes (Drummond Wiretrol 100 μL) were filled with the test solutions. One end of each micro liter pipette was sealed with parafilm leaving one end of each open. […] An air tight lid was placed onto the plastic container and the container was installed in-line after humidity and temperature conditioning of the gas and before the gas entered the arena. The micro liter pipettes were weighed before and after use to determine the amount of the test compounds released. The control gas used for these experiments consisted of house compressed air.

Structure (SMILES)	% Bed bugs in Experimental Zone [1] [%]	Number of bed bugs under experimental (Exp) filter paper disk ([2]; organic acid 10 ppm in deionized water)	Number of bed bugs under experimental (Exp) filter paper disk ([2]; organic acid 50 ppm in deionized water)	Number of bed bugs under experimental (Exp) filter paper disk ([2]; organic acid 100 ppm in deionized water)	Number of bed bugs under experimental (Exp) filter paper disk ([2]; organic acid 1000 ppm in deionized water)	Number of bed bugs under experimental (Exp) filter paper disk ([2]; organic acid 10000 ppm in deionized water)	Number of bed bugs under experimental (Exp) disk ([3]; 1 Hour)	Number of bed bugs under experimental (Exp) disk ([3]; 2 Hour)	Number of bed bugs under experimental (Exp) disk ([3]; 3 Hour)	Number of bed bugs under experimental (Exp) disk ([3]; 4 Hours)	Attraction of bed bugs to experimental filter disks ([3]; H/O 75:25 120 ppm, butyric acid 100 ppm)	% Bed bugs in Experimental Zone ([4]; after two hour exposure, released from nonane solution at 150.0-184.8 nanograms/hour @ 100 mL/min air flow, test gas 21-22 °C, control gas compressed air) [%]	Attraction of bed bugs to gaseous mixture ([4]; test arena, two hour exposure, versus control gas)
O=C=O [CO2, carbon dioxide]	76.0	–	–	–	–	–	–	–	–	–	–	–	–
CCCC(=O)O [Butyric acid, butyric acid]	–	4	2	4	4	4	4.5	5.5	4.5	5	attracted	34.0	attracted
